According to PubChem BioAssay AID1259407 (Chemical Carcinogenesis Research Information System (CCRIS), 2018):
Activity calls are given as the source filed them. The rule behind the calls is not given here.

Test system: CCRIS mutagenicity, Ames/micronucleus/aberration tests
Experiment: CCRIS mutagenicity studies
[1] = Test System: AMES SALMONELLA TYPHIMURIUM, Strain/Indicator: TA98, Metabolic Activation: NONE, Method: PREINCUBATION

## O=C1NCCN1c1ncc([N+](=O)[O-])s1
Test System: AMES SALMONELLA TYPHIMURIUM, Strain/Indicator: TA96(NR), Metabolic Activation: NONE, Method: STANDARD PLATE
  mutagenic call: inactive; negative
Test System: AMES SALMONELLA TYPHIMURIUM, Strain/Indicator: TA96(NRB), Metabolic Activation: NONE, Method: PREINCUBATION
  mutagenic call: active; positive
Test System: AMES SALMONELLA TYPHIMURIUM, Strain/Indicator: TA96(NRB), Metabolic Activation: RAT, LIVER, S-9, AROCLOR 1254, Method: PREINCUBATION
  mutagenic call: active; positive
Test System: AMES SALMONELLA TYPHIMURIUM, Strain/Indicator: TA96(NRC), Metabolic Activation: NONE, Method: PREINCUBATION
  mutagenic call: inactive; negative
Test System: AMES SALMONELLA TYPHIMURIUM, Strain/Indicator: TA96(NRC), Metabolic Activation: RAT, LIVER, S-9, AROCLOR 1254, Method: PREINCUBATION
  mutagenic call: inactive; negative
Test System: AMES SALMONELLA TYPHIMURIUM, Strain/Indicator: TA96, Metabolic Activation: NONE, Method: PREINCUBATION
  mutagenic call: active; positive
Test System: AMES SALMONELLA TYPHIMURIUM, Strain/Indicator: TA96, Metabolic Activation: NONE, Method: STANDARD PLATE
  mutagenic call: active; positive
Test System: AMES SALMONELLA TYPHIMURIUM, Strain/Indicator: TA96, Metabolic Activation: RAT, LIVER, S-9, AROCLOR 1254, Method: PREINCUBATION
  mutagenic call: active; positive
Test System: AMES SALMONELLA TYPHIMURIUM, Strain/Indicator: TA97, Metabolic Activation: NONE, Method: PREINCUBATION
  mutagenic call: active; positive
Test System: AMES SALMONELLA TYPHIMURIUM, Strain/Indicator: TA97, Metabolic Activation: NONE, Method: STANDARD PLATE
  mutagenic call: active; positive
Test System: AMES SALMONELLA TYPHIMURIUM, Strain/Indicator: TA97, Metabolic Activation: RAT, LIVER, S-9, AROCLOR 1254, Method: PREINCUBATION
  mutagenic call: active; positive
Test System: AMES SALMONELLA TYPHIMURIUM, Strain/Indicator: TA98(NR), Metabolic Activation: NONE, Method: PREINCUBATION
  mutagenic call: active; positive
Test System: AMES SALMONELLA TYPHIMURIUM, Strain/Indicator: TA98(NR), Metabolic Activation: NONE, Method: STANDARD PLATE
  mutagenic call: inactive; negative
Test System: AMES SALMONELLA TYPHIMURIUM, Strain/Indicator: TA98(NR), Metabolic Activation: RAT, LIVER, S-9, AROCLOR 1254, Method: PREINCUBATION
  mutagenic call: active; positive
[1]
  mutagenic call: active; positive
Test System: AMES SALMONELLA TYPHIMURIUM, Strain/Indicator: TA98, Metabolic Activation: NONE, Method: STANDARD PLATE
  mutagenic call: active; positive
Test System: AMES SALMONELLA TYPHIMURIUM, Strain/Indicator: TA98, Metabolic Activation: RAT, LIVER, S-9, AROCLOR 1254, Method: PREINCUBATION
  mutagenic call: active; positive
Test System: AMES SALMONELLA TYPHIMURIUM, Strain/Indicator: TA98, Metabolic Activation: RAT, LIVER, S-9, AROCLOR 1254 OR PHENOBARBITOL, Method: STANDARD PLATE
  mutagenic call: active; positive
Test System: AMES SALMONELLA TYPHIMURIUM, Strain/Indicator: TA98, Metabolic Activation: RAT, LIVER, S-9, KC500 OR PHENOBARBITAL, Method: LIQUID SUSPENSION
  mutagenic call: active; positive
Test System: AMES SALMONELLA TYPHIMURIUM, Strain/Indicator: TA100(NR), Metabolic Activation: NONE, Method: PREINCUBATION
  mutagenic call: active; positive
Test System: AMES SALMONELLA TYPHIMURIUM, Strain/Indicator: TA100(NR), Metabolic Activation: NONE, Method: STANDARD PLATE
  mutagenic call: inactive; negative
Test System: AMES SALMONELLA TYPHIMURIUM, Strain/Indicator: TA100(NR), Metabolic Activation: RAT, LIVER, S-9, AROCLOR 1254, Method: PREINCUBATION
  mutagenic call: active; positive
Test System: AMES SALMONELLA TYPHIMURIUM, Strain/Indicator: TA100, Metabolic Activation: NONE, Method: PREINCUBATION
  mutagenic call: active; positive
Test System: AMES SALMONELLA TYPHIMURIUM, Strain/Indicator: TA100, Metabolic Activation: RAT, LIVER, S-9, AROCLOR 1254, Method: PREINCUBATION
  mutagenic call: active; positive
Test System: AMES SALMONELLA TYPHIMURIUM, Strain/Indicator: TA100, Metabolic Activation: RAT, LIVER, S-9, AROCLOR 1254 OR PHENOBARBITOL, Method: STANDARD PLATE
  mutagenic call: active; positive
Test System: AMES SALMONELLA TYPHIMURIUM, Strain/Indicator: TA100, Metabolic Activation: RAT, LIVER, S-9, KC500 OR PHENOBARBITAL, Method: LIQUID SUSPENSION
  mutagenic call: active; positive
Test System: AMES SALMONELLA TYPHIMURIUM, Strain/Indicator: TA102(NRD), Metabolic Activation: NONE, Method: PREINCUBATION
  mutagenic call: active; positive
Test System: AMES SALMONELLA TYPHIMURIUM, Strain/Indicator: TA102(NRD), Metabolic Activation: RAT, LIVER, S-9, AROCLOR 1254, Method: PREINCUBATION
  mutagenic call: active; positive
Test System: AMES SALMONELLA TYPHIMURIUM, Strain/Indicator: TA102, Metabolic Activation: NONE, Method: PREINCUBATION
  mutagenic call: active; positive
Test System: AMES SALMONELLA TYPHIMURIUM, Strain/Indicator: TA102, Metabolic Activation: NONE, Method: STANDARD PLATE
  mutagenic call: active; positive
Test System: AMES SALMONELLA TYPHIMURIUM, Strain/Indicator: TA102, Metabolic Activation: RAT, LIVER, S-9, AROCLOR 1254, Method: PREINCUBATION
  mutagenic call: active; positive
Test System: AMES SALMONELLA TYPHIMURIUM, Strain/Indicator: TA104, Metabolic Activation: NONE, Method: STANDARD PLATE
  mutagenic call: inactive; negative
Test System: AMES SALMONELLA TYPHIMURIUM, Strain/Indicator: TA1535, Metabolic Activation: NONE, Method: STANDARD PLATE
  mutagenic call: inactive; negative
Test System: AMES SALMONELLA TYPHIMURIUM, Strain/Indicator: TA1535, Metabolic Activation: RAT, LIVER, S-9, AROCLOR 1254 OR PHENOBARBITOL, Method: STANDARD PLATE
  mutagenic call: inactive; negative
Test System: AMES SALMONELLA TYPHIMURIUM, Strain/Indicator: TA1537, Metabolic Activation: NONE, Method: STANDARD PLATE
  mutagenic call: inactive; negative
Test System: AMES SALMONELLA TYPHIMURIUM, Strain/Indicator: TA1537, Metabolic Activation: RAT, LIVER, S-9, AROCLOR 1254 OR PHENOBARBITOL, Method: STANDARD PLATE
  mutagenic call: inactive; negative
Test System: AMES SALMONELLA TYPHIMURIUM, Strain/Indicator: TA1538, Metabolic Activation: NONE, Method: STANDARD PLATE
  mutagenic call: active; positive
Test System: AMES SALMONELLA TYPHIMURIUM, Strain/Indicator: TA1538, Metabolic Activation: RAT, LIVER, S-9, AROCLOR 1254 OR PHENOBARBITOL, Method: STANDARD PLATE
  mutagenic call: active; positive
Test System: E. COLI, Strain/Indicator: WP2, Metabolic Activation: NONE, Method: SPOT
  mutagenic call: active; positive
Test System: E. COLI, Strain/Indicator: WP2 UVRA, Metabolic Activation: NONE, Method: SPOT
  mutagenic call: active; positive
Test System: E. COLI, Strain/Indicator: WP2 UVRA, Metabolic Activation: NONE, Method: STANDARD PLATE
  mutagenic call: active; positive

## Nc1ccc2nc3ccccc3nc2c1
[1]
  mutagenic call: inactive; negative
Test System: AMES SALMONELLA TYPHIMURIUM, Strain/Indicator: TA98, Metabolic Activation: RAT, LIVER, S-9, PCB, Method: PREINCUBATION
  mutagenic call: active; positive
